Our source for the IC50 values is BindingDB's records for PubMed 33314936 (n/a, 2020).

This experiment can be described thus: Agonist activity at human PGI2 receptor assessed as inhibition of ADP-induced platelet aggregation.

As usually defined, the IC50 is the concentration needed to halve the response being measured.

SMILES strings stand for the structures.

Consider `CC(C)N(CCCCOCC(=O)NS(C)(=O)=O)c1cnc(-c2ccccc2)c(-c2ccccc2)n1` [ACT-293987], for which the IC50 was 6.4 µM.
